# Test results: patent publication US20180311247A1, “COMBINATION THERAPIES FOR TREATING CANCERS” (GILEAD SCIENCES, INC., priority 2015, published 2018)
# Where two headings read alike, the source gives them in different places.
# Legend:
# [1] = system: type II collagen arthritis in female Lewis rats; test: rat collagen-induced arthritis model (established type II collagen arthritis); assay type: in vivo; details: for summed ankle histopathology (mean ± standard error), maximum value of 25: day 34
# Method: This study evaluated the potential effects of BTK inhibitor in combination with JAK inhibitor in treating arthritis. Lewis rats were injected intradermally/subcutaneously (ID/SC) with porcine type II collagen to induce arthritis. Arthritic rats were treated with vehicle (20% Cremophor EL/10% EtOH/70% saline), Compound A1 (a BTK inhibitor), Compound B4 (a JAK inhibitor), Compound A1 and Compound B4, or Dex (dexamethasone). Compound A1 was administered orally either twice daily at 3, 10, or 20 mg/kg or once daily at 20 mg/kg; Compound B4 was administered orally daily at 2.5 mg/kg; dex was administered daily at 0.075 mg/kg, initiated on day 17. The study was terminated at day 34. Efficacy evaluation was based on body weights, daily ankle caliper measurements, ankle diameter expressed as area under the curve (AUC), terminal hind paw weights, and histopathologic evaluation of right ankles.
# This model may reflect certain clinical and histopathologic parameters, such as inflammation, cartilage destruction, and bone resorption that occur in established type II collagen arthritis in female Lewis rats.
# Ankle diameters were measured and compared for potential treatment effects. FIG. 1 depicts the measurements taken on Day 9, 13-34 for ankle diameter (in.) (mean±standard error) for the following groups: control (normal and disease), Compound A1 (20 mg/kg, daily), Compound A1 (3 mg/kg, twice daily), Compound B4 (2.5 mg/kg, twice daily), Compound A1 (20 mg/kg, daily) with Compound B4 (2.5 mg/kg, twice daily), Compound A1 (3 mg/kg, twice daily) with Compound B4 (2.5 mg/kg, twice daily) and Dex (0.075 mg/kg daily). In addition, the AUC total sum (day 17-34) (mean f standard error) was measured.
# The following score systems were used to evaluate ankle inflammation, ankle pannus, ankle cartilage damage, ankle bone resorption, and periosteal new bone formation, which may represent treatment effects to ankle histology. The sum of the summed ankle histology scores for day 34, are provided herein.
# Ankle inflammation scores as used herein have the following meaning: 0=normal; 0.5=minimal focus inflammation; 1=minimal infiltration of inflammatory cells in synovium/periarticular tissue; 2=mild infiltration; 3-moderate infiltration with moderate edema; 4=marked infiltration with marked edema; 5=severe infiltration with severe edema. Ankle pannus scores as used herein have the following meaning: 0=normal; 0.5=minimal infiltration of pannus in cartilage and subchondral bone, affects only marginal zones and affects only a few joints; 1=minimal infiltration of pannus in cartilage and subchondral bone, primarily affects marginal zones; 2=mild infiltration (<25% of tibia or tarsals at marginal zones); 3=moderate infiltration (26%-50% of tibia or small tarsals affected at marginal zones); 4=marked infiltration (51%-75% of tibia or tarsals affected at marginal zones); 5=severe infiltration (>75% of tibia or tarsals affected at marginal zones, severe distortion of overall architecture).
# [2] = system: human activated B cell (ABC) subtype DLBCL cell line, TMD8; test: TMD8 cell viability (CellTiter Glo) growth inhibition assay; assay type: cell-based; details: TMD8 cells; for IC50: Homo sapiens, TMD8, 96 h, 96 hours, read-out: average IC50 (concentration that causes half maximal inhibition of cell growth); for cell growth inhibition over the dose range: four days, Compound D 0-90 nM, Compound A1 0-22 nM
# Method: Material and Methods: The effect of the combination of a BET inhibitor, (2-cyclopropyl-6-(3,5-dimethylisoxazol-4-yl)-1H-benzo[d]imidazol-4-yl)di(pyridin-2-yl)methanol (Compound D), and BTK inhibitor (Compound A1) on growth inhibition of the human activated B cell (ABC) subtype DLBCL cell line, TMD8, was evaluated in vitro. TMD8 cells were dosed with a matrix of Compound D (0-90 nM) and compound A1 (0-22 nM) and treated for four days, after which cell viability was measured by a CellTiter Glo assay. A representative heatmap of this dose matrix for cell growth inhibition is shown in FIG. 2 (0% to 100% growth inhibition). […] Synergy was defined as the excess over the predicted additive interaction between the compounds using Bliss analysis.
# Cells were plated at a density of 4,000 cells per well in 384-well (Grenier 781086) tissue culture black well plates already spotted with compounds by a Labcyte Echo liquid handler. […] The predicted response under Bliss additivity for any combination of drugs at a given concentration pair was determined by Ra+Rb−Ra*Rb, where Ra and Rb are the responses of Compounds D and A1 (i.e., cell growth inhibition). The total Bliss score was determined by summing the differences between the observed values and the predicted additive value at each pair of concentrations assayed. Only values where the difference is greater than the 95% confidence interval of the measurements are included in the sum.
# [3] = Compound B4 2.5 mg/kg, twice daily, orally
# [4] = Compound A1 3 mg/kg, twice daily, orally
# [5] = Compound A1 10 mg/kg, twice daily, orally
# [6] = Compound A1 20 mg/kg, daily, orally
# [7] = Compound A1 20 mg/kg, twice daily, orally
smiles,measurement,setting,value
"C[C@@H]1CCN(C(=O)CC#N)C[C@@H]1N(C)c1ncnc2[nH]ccc12 [Compound B4, 3-((3R,4R)-4-methyl-3-(methyl(7H-pyrrolo[2,3-d]pyrimidin-4-yl)amino)piperidin-1-yl)-3-oxopropanenitrile, reference compound]",ED-1 immunopositive osteoclast count (mean ± standard error),[1]; [3],16±1.7
same,ankle diameter AUC total sum (day 17-34) (mean ± standard error),[1]; [3],5.6±0.083
same,percent inhibition of the AUC total sum (day 17-34),[1]; [3],28%
same,percent inhibition of the ED-1 immunopositive osteoclast count,[1]; [3],14%
same,percent inhibition of the summed ankle histopathology,[1]; [3],23%
same,"summed ankle histopathology (mean ± standard error), maximum value of 25",[1]; [3],19±1.4
"C[C@@H]1C[C@H]2[C@@H]3CCC4=CC(=O)C=C[C@]4(C)[C@@]3(F)[C@@H](O)C[C@]2(C)[C@@]1(O)C(=O)CO [Dex, dexamethasone, reference compound]",ED-1 immunopositive osteoclast count (mean ± standard error),[1]; Dex 0.075 mg/kg,4±1.4
same,percent inhibition of the AUC total sum (day 17-34),[1]; Dex 0.075 mg/kg,56%
same,percent inhibition of the ED-1 immunopositive osteoclast count,[1]; Dex 0.075 mg/kg,85%
same,percent inhibition of the summed ankle histopathology,[1]; Dex 0.075 mg/kg,51%
same,ankle diameter AUC total sum (day 17-34) (mean ± standard error),[1]; Dex 0.075 mg/kg daily,5.2±0.069
same,"summed ankle histopathology (mean ± standard error), maximum value of 25",[1]; Dex 0.075 mg/kg daily,12±1.0
"Cc1noc(C)c1-c1cc(C(O)(c2ccccn2)c2ccccn2)c2nc(C3CC3)[nH]c2c1 [Compound D, (2-cyclopropyl-6-(3,5-dimethylisoxazol-4-yl)-1H-benzo[d]imidazol-4-yl)di(pyridin-2-yl)methanol]",IC50,[2]; Compound D alone,25 nM
same,IC50,[2]; in the presence of 5.5 nM of Compound A1,11 nM
same,IC50,[2]; in the presence of 11 nM of Compound A1,8 nM
same,cell growth inhibition over the dose range,[2],reduced cell growth
"CC#CC(=O)N1CC[C@@H](n2c(=O)n(-c3ccc(Oc4ccccc4)cc3)c3c(N)ncnc32)C1 [Compound A1, (R)-6-amino-9-(1-(but-2-ynoyl)pyrrolidin-3-yl)-7-(4-phenoxyphenyl)-7H-purin-8(9H)-one]",ED-1 immunopositive osteoclast count (mean ± standard error),[1]; [4],7±1.3
same,ankle diameter AUC total sum (day 17-34) (mean ± standard error),[1]; [4],5.9±0.079
same,percent inhibition of the AUC total sum (day 17-34),[1]; [4],13%
same,percent inhibition of the ED-1 immunopositive osteoclast count,[1]; [4],65%
same,percent inhibition of the summed ankle histopathology,[1]; [4],10%
same,ED-1 immunopositive osteoclast count (mean ± standard error),[1]; [5],8±1.9
same,ankle diameter AUC total sum (day 17-34) (mean ± standard error),[1]; [5],5.9±0.102
same,percent inhibition of the AUC total sum (day 17-34),[1]; [5],9%
same,percent inhibition of the ED-1 immunopositive osteoclast count,[1]; [5],62%
same,percent inhibition of the summed ankle histopathology,[1]; [5],16%
same,ED-1 immunopositive osteoclast count (mean ± standard error),[1]; [6],9±1.5
same,ankle diameter AUC total sum (day 17-34) (mean ± standard error),[1]; [6],5.9±0.096
same,percent inhibition of the AUC total sum (day 17-34),[1]; [6],13%
same,percent inhibition of the ED-1 immunopositive osteoclast count,[1]; [6],56%
same,percent inhibition of the summed ankle histopathology,[1]; [6],15%
same,ED-1 immunopositive osteoclast count (mean ± standard error),[1]; [7],4±0.7
same,ankle diameter AUC total sum (day 17-34) (mean ± standard error),[1]; [7],5.8±0.124
same,percent inhibition of the AUC total sum (day 17-34),[1]; [7],15%
same,percent inhibition of the ED-1 immunopositive osteoclast count,[1]; [7],83%
same,percent inhibition of the summed ankle histopathology,[1]; [7],18%
same,"summed ankle histopathology (mean ± standard error), maximum value of 25",[1]; [4],23±0.6
same,"summed ankle histopathology (mean ± standard error), maximum value of 25",[1]; [5],21±1.4
same,"summed ankle histopathology (mean ± standard error), maximum value of 25",[1]; [6],21±0.7
same,"summed ankle histopathology (mean ± standard error), maximum value of 25",[1]; [7],21±0.6
same,cell growth inhibition over the dose range,[2],reduced cell growth
